# Target: human PD-L1 (Homo sapiens (Human), UniProt Q9NZQ7)
# Experiment: Enzyme-Linked Immunosorbent Assay (ELISA), PD-1/PD-L1 binding
# Conditions: plate-coated human PD-L1, biotinylated Human PD-1, absorbance at 450 nm
# Procedure, shortened: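 Competitive ELISA: human PD-1 […] (0.31 μg/mL) and serially diluted compounds (1:5) incubated 1 h at 37° C on wells coated with […] human PD-L1. Signal via streptavidin-HRP/TMB, stopped with 2 N H2SO4, measured as A450.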
# Chain of human PD-L1 (Q9NZQ7 19-239): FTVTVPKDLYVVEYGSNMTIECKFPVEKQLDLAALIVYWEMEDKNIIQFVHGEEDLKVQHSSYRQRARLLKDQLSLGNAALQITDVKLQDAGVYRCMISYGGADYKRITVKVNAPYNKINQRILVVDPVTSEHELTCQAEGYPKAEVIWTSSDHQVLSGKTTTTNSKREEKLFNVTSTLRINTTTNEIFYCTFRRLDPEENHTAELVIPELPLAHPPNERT
row,Compound,IC50
1,COc1cc(-c2cccc(-c3cccc(NC(=O)c4cn(C)c(=O)n(C)c4=O)c3C)c2C)cc(F)c1CN1CC2(CCNC2=O)C1 [Example 2.011],< 10 nM
2,COc1cc(-c2cccc(-c3cccc(NC(=O)c4c[nH]c(=O)n(C)c4=O)c3Cl)c2Cl)cc(F)c1CN[C@H]1CCOC[C@H]1OC [Example 2.022],< 10 nM
3,COc1cc(-c2cccc(-c3cccc(NC(=O)c4c[nH]c(=O)n(C)c4=O)c3C)c2Cl)cc(F)c1CN[C@H]1CCOC[C@H]1OC [Example 2.023],< 10 nM
4,COc1cc(-c2cccc(-c3cccc(NC(=O)c4cn(C)c(=O)n(C)c4=O)c3Cl)c2Cl)cc(F)c1CN[C@H]1CCOC[C@H]1OC [Example 2.025],< 10 nM
5,COc1cc(-c2cccc(-c3cccc(NC(=O)c4c[nH]c(=O)n(C)c4=O)c3Cl)c2Cl)cc(F)c1CNCC1(C(N)=O)CC1 [Example 2.026],< 10 nM
6,COc1cc(-c2cccc(-c3cccc(NC(=O)c4c[nH]c(=O)n(C)c4=O)c3Cl)c2Cl)cc(F)c1CN[C@H]1CCC(=O)NC1 [Example 2.027],< 10 nM
7,COc1cc(-c2cccc(-c3cccc(NC(=O)c4c[nH]c(=O)n(C)c4=O)c3Cl)c2Cl)cc(F)c1CN[C@H]1CCOC[C@H]1O [Example 2.029],< 10 nM
8,COc1cc(-c2cccc(-c3cccc(NC(=O)c4c[nH]c(=O)n(C)c4=O)c3Cl)c2Cl)cc(F)c1CN[C@@H]1CCOC[C@@H]1O [Example 2.030],< 10 nM
9,COc1cc(-c2cccc(-c3cccc(NC(=O)c4c[nH]c(=O)n(C)c4=O)c3C)c2Cl)cc(F)c1CNCC1(C(N)=O)CC1 [Example 2.031],< 10 nM
10,COc1cc(-c2cccc(-c3cccc(NC(=O)c4c[nH]c(=O)n(C)c4=O)c3C)c2Cl)cc(F)c1CN[C@H]1CCC(=O)NC1 [Example 2.032],< 10 nM
11,COc1cc(-c2cccc(-c3cccc(NC(=O)c4c[nH]c(=O)n(C)c4=O)c3C)c2Cl)cc(F)c1CN[C@@H]1CNC(=O)C1 [Example 2.033],< 10 nM
12,COc1cc(-c2cccc(-c3cccc(NC(=O)c4c[nH]c(=O)n(C)c4=O)c3C)c2Cl)cc(F)c1CN[C@H]1CCOC[C@H]1O [Example 2.034],< 10 nM
13,COc1cc(-c2cccc(-c3cccc(NC(=O)c4c[nH]c(=O)n(C)c4=O)c3C)c2Cl)cc(F)c1CN[C@@H]1CCOC[C@@H]1O [Example 2.035],< 10 nM
14,CCOc1cc(-c2cccc(-c3cccc(NC(=O)c4cn(C)c(=O)n(C)c4=O)c3Cl)c2Cl)cc(F)c1CN[C@H]1CCC(=O)NC1 [Example 2.036],< 10 nM
15,CCOc1cc(-c2cccc(-c3cccc(NC(=O)c4cn(C)c(=O)n(C)c4=O)c3Cl)c2Cl)cc(F)c1CN[C@@H]1CCOC[C@@H]1O [Example 2.037],< 10 nM
16,CCOc1cc(-c2cccc(-c3cccc(NC(=O)c4cn(C)c(=O)n(C)c4=O)c3C)c2Cl)cc(F)c1CN[C@H]1CCC(=O)NC1 [Example 2.038],10 to 1000 nM
17,CCOc1cc(-c2cccc(-c3cccc(NC(=O)c4cn(C)c(=O)n(C)c4=O)c3C)c2Cl)cc(F)c1CN[C@@H]1CCOC[C@@H]1O [Example 2.039],< 10 nM
18,COc1cc(-c2cccc(-c3cccc(NC(=O)c4cncn(C)c4=O)c3C)c2Cl)cc(F)c1CN[C@H]1CCC(=O)NC1 [Example 2.041],< 10 nM
19,COc1cc(-c2cccc(-c3cccc(NC(=O)c4cncn(C)c4=O)c3C)c2Cl)cc(F)c1CN[C@@H]1CCOC[C@@H]1O [Example 2.042],< 10 nM
20,CCOc1cc(-c2cccc(-c3cccc(NC(=O)c4cn(C)c(=O)n(C)c4=O)c3C)c2Cl)ccc1CN[C@@H]1CCOC[C@@H]1O [Example 2.048],< 10 nM
21,COc1cc(-c2cccc(-c3cccc(NC(=O)c4cn(C)c(=O)n(C)c4=O)c3C)c2Cl)cnc1CN[C@@H]1CCOC[C@@H]1O [Example 2.049],< 10 nM
22,COc1cc(-c2cccc(-c3cccc(NC(=O)c4cn(C)c(=O)n(C)c4=O)c3C)c2Cl)cc(F)c1CNC1(C)CCOCC1 [Example 2.050],< 10 nM
23,COc1cc(-c2cccc(-c3cccc(NC(=O)c4cn(C)c(=O)n(C)c4=O)c3C)c2Cl)ccc1CN[C@@H]1CCOC[C@@H]1O [Example 2.054],< 10 nM
24,COc1cc(-c2cccc(-c3cccc(NC(=O)c4cn(C)c(=O)n(C)c4=O)c3Cl)c2Cl)cc(F)c1CN(C)[C@H]1CNC(=O)C1 [Example 2.055],10 to 1000 nM

# Further lines, results first:
row,IC50,Compound
1,< 10 nM,COc1cc(-c2cccc(-c3cccc(NC(=O)c4cn(C)c(=O)n(C)c4=O)c3C)c2Cl)cc(F)c1CN1CC2(CCNC2=O)C1 [Example 2.012]
2,< 10 nM,COc1cc(-c2cccc(-c3cccc(NC(=O)c4cn(C)c(=O)n(C)c4=O)c3C)c2Cl)cc(F)c1CN1CCC(C)(C(=O)O)CC1 [Example 2.013]
3,< 10 nM,COc1cc(-c2cccc(-c3cccc(NC(=O)c4cn(C)c(=O)n(C)c4=O)c3C)c2C)cc(F)c1CN1CC(C(=O)O)C1 [Example 2.014]
4,< 10 nM,COc1cc(-c2cccc(-c3cccc(NC(=O)c4cn(C)c(=O)n(C)c4=O)c3C)c2Cl)cc(F)c1CN1CCC[C@@H](C(=O)O)C1 [Example 2.015]
5,< 10 nM,COc1cc(-c2cccc(-c3cccc(NC(=O)c4cn(C)c(=O)n(C)c4=O)c3C)c2Cl)cc(F)c1CN1CC[C@@H](O)C1 [Example 2.016]
6,< 10 nM,COc1cc(-c2cccc(-c3cccc(NC(=O)c4cn(C)c(=O)n(C)c4=O)c3C)c2Cl)cc(F)c1CN1CC(C)(C(=O)O)C1 [Example 2.017]
7,< 10 nM,COc1cc(-c2cccc(-c3cccc(NC(=O)c4cn(C)c(=O)n(C)c4=O)c3C)c2Cl)cc(F)c1CN1CCC(C)(O)CC1 [Example 2.018]
8,< 10 nM,COc1cc(-c2cccc(-c3cccc(NC(=O)c4cn(C)c(=O)n(C)c4=O)c3C)c2Cl)cc(F)c1CN1CCC(C(=O)O)CC1 [Example 2.019]
9,< 10 nM,COc1cc(-c2cccc(-c3cccc(NC(=O)c4cn(C)c(=O)n(C)c4=O)c3C)c2Cl)cc(F)c1CN1CCC(O)CC1 [Example 2.020]
10,< 10 nM,COc1cc(-c2cccc(-c3cccc(NC(=O)c4cn(C)c(=O)n(C)c4=O)c3C)c2Cl)cc(F)c1CN1CC[C@@H](C(=O)O)C1 [Example 2.021]
11,< 10 nM,COc1cc(-c2cccc(-c3cccc(NC(=O)c4cn(C)c(=O)n(C)c4=O)c3C)c2Cl)cc(F)c1CN[C@H]1CCOC[C@H]1OC [Example 2.024]
12,< 10 nM,COc1cc(-c2cccc(-c3cccc(NC(=O)c4cn(C)c(=O)n(C)c4=O)c3C)c2Cl)cc(F)c1CN(C)[C@@H]1CCOC1 [Example 2.043]
13,< 10 nM,COc1cc(-c2cccc(-c3cccc(NC(=O)c4cn(C)c(=O)n(C)c4=O)c3C)c2Cl)cc(F)c1CNCC(C)(C)O [Example 2.045]
14,< 10 nM,COc1cc(-c2cccc(-c3cccc(NC(=O)c4cn(C)c(=O)n(C)c4=O)c3C)c2Cl)cc(F)c1CN1CC(C(=O)O)C1 [Example 2.046]
15,< 10 nM,COc1cc(-c2cccc(-c3cccc(NC(=O)c4cn(C)c(=O)n(C)c4=O)c3C)c2Cl)cc(F)c1CN1CCCC[C@H]1C(=O)O [Example 2.047]
16,< 10 nM,COc1cc(-c2cccc(-c3cccc(NC(=O)c4cn(C)c(=O)n(C)c4=O)c3C)c2Cl)cc(F)c1CN[C@@H]1CCC[C@@H]1O [Example 2.051]
17,< 10 nM,COc1cc(-c2cccc(-c3cccc(NC(=O)c4cn(C)c(=O)n(C)c4=O)c3C)c2Cl)cc(F)c1CN[C@@H]1CCC[C@H]1O [Example 2.052]
18,< 10 nM,COc1cc(-c2cccc(-c3cccc(NC(=O)c4cn(C)c(=O)n(C)c4=O)c3C)c2Cl)cc(F)c1CN[C@H]1CCC[C@H]1O [Example 2.053]
